Data as given in article PMC6553640 (Science signaling, 2018).

Target: T1, TRIB1 (Homo sapiens, UniProt Q96RU8)
T1 sequence (Q96RU8 84-372): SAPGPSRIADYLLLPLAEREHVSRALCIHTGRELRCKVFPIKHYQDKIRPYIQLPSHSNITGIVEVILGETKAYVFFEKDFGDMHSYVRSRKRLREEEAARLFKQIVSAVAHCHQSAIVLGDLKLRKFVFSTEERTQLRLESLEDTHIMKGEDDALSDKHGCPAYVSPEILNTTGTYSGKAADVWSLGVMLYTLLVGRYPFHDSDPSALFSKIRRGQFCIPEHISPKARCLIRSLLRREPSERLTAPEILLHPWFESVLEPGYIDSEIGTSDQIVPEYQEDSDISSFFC
Assay: DSF destabilization
Type: binding

Compound: COc1cccc(COc2cc(-n3cnc4ccccc43)sc2C(N)=O)c1 [GW804482X]
- DSF destabilization: although like TRIB2, destabilization was evident in the presence of GW804482X (fig. S3C)
